Assay [1] has as its target T1, Mitogen-activated protein kinase kinase kinase 13 (Homo sapiens) (UniProt O43283).
T1 sequence (whole entry): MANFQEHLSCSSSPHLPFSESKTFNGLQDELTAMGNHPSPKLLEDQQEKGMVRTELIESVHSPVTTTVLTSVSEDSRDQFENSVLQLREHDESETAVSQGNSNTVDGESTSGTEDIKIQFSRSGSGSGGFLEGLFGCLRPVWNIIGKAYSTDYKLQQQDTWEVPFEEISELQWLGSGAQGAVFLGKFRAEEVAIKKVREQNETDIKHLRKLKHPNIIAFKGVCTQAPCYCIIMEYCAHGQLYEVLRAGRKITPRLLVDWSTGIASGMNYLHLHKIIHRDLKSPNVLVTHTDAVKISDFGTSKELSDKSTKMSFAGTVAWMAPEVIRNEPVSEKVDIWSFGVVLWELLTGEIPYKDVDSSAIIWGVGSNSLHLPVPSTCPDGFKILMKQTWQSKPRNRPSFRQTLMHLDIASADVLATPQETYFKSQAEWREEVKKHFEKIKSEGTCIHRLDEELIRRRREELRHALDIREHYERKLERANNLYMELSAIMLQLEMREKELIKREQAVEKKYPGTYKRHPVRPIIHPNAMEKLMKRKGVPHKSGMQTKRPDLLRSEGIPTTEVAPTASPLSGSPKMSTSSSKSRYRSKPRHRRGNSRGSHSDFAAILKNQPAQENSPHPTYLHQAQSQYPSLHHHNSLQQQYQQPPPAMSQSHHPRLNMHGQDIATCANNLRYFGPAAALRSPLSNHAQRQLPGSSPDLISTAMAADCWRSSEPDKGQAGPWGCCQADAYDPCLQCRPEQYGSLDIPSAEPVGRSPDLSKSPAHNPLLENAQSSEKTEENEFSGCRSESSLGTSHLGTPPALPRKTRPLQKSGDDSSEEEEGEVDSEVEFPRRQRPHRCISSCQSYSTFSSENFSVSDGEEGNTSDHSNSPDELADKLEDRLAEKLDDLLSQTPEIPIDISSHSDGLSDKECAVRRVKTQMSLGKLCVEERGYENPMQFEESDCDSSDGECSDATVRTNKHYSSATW
Description: Selectivity interaction (KinomeScan (DiscoverX)) EUB0001619a MAP3K13. As to conditions: at 1 µM.

For assay [2], the target named is T2, cGMP-dependent protein kinase 1 (Homo sapiens) (UniProt Q13976).
T2 sequence (whole entry): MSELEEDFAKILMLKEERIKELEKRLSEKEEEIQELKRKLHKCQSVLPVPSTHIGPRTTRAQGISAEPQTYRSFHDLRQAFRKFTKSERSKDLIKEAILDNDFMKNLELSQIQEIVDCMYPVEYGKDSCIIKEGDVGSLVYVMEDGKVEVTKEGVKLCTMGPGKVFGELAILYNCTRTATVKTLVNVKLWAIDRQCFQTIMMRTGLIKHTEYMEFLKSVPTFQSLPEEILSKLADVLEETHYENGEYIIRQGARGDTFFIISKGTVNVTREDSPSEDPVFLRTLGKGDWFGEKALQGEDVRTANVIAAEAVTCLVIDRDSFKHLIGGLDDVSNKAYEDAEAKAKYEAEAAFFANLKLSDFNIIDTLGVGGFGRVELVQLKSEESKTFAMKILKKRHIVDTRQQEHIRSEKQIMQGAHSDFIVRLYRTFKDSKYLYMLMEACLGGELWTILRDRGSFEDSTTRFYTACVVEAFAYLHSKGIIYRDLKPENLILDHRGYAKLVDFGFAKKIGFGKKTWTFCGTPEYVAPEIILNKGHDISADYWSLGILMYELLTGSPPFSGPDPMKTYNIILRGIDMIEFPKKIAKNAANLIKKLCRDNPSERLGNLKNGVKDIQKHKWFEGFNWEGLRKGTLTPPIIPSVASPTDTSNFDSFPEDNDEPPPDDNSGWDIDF
Description: Selectivity interaction (KinomeScan (DiscoverX)) EUB0000666a PRKG1. As to conditions: at 10 µM.

Assay [3] addresses Cyclin-dependent kinase 16 (Homo sapiens) (UniProt Q00536). Description: Selectivity interaction (KinomeScan (DiscoverX)) EUB0000607a CDK16. The settings on record: at 10 µM.
Assay [4] concerns the target Casein kinase I isoform delta (Homo sapiens, UniProt P48730). Description: Selectivity interaction (KinomeScan (DiscoverX)) EUB0000045b CSNK1D.
Assay [5] deals with 5'-AMP-activated protein kinase catalytic subunit alpha-1 (Homo sapiens, UniProt Q13131). The experiment in a line: Selectivity interaction (KinomeScan (DiscoverX)) EUB0000045b PRKAA1.
Assay [6] concerns Tyrosine-protein kinase ABL1 (Homo sapiens), P00519 [H396P]. Description: Selectivity interaction (Ambit KINOMEscan and KiNATiv profiling in Jurkat cells) EUB0000090b ABL1. The format is cell-based. The settings on record: at 1 µM.
Assay [7] concerns the target T3, Myosin light chain kinase family member 4 (Homo sapiens) (UniProt Q86YV6).
T3 sequence (whole entry): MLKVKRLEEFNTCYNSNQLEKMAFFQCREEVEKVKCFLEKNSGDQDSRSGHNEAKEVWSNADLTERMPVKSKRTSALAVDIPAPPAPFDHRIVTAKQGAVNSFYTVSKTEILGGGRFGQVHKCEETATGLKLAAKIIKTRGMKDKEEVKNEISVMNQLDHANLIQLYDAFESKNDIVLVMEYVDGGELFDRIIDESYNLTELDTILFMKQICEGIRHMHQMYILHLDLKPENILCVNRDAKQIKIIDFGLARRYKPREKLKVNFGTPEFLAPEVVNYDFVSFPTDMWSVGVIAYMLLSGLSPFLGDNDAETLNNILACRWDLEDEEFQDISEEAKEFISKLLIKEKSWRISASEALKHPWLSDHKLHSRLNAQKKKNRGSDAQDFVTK
Description: Selectivity interaction (KinomeScan (DiscoverX)) EUB0001049a MYLK4. As to conditions: at 1 µM.

For assay [8], the target named is Tyrosine-protein kinase Blk (Homo sapiens) (UniProt P51451). Description: Selectivity interaction (KinomeScan (DiscoverX)) EUB0000655a BLK. The settings on record: at 10 µM.

Molecules are shown by their SMILES.

5'-AMP-activated protein kinase catalytic subunit alpha-1, sequence (Q13131 whole entry, looked up): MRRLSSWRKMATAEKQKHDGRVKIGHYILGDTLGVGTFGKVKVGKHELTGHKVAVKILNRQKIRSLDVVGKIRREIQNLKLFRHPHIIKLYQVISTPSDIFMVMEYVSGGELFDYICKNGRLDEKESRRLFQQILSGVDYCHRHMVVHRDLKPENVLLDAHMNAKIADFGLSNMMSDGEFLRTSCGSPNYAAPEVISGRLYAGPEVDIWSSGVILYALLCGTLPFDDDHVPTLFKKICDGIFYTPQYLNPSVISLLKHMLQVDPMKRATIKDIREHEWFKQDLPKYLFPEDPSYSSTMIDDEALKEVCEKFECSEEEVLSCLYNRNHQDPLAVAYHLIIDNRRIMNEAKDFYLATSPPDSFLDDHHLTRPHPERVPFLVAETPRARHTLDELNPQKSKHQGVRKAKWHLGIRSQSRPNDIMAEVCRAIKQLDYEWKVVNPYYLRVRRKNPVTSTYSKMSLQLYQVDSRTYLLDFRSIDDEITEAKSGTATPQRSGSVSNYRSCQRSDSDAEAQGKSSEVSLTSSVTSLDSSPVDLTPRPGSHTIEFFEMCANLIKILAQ
Casein kinase I isoform delta, sequence (P48730 whole entry, looked up, canonical isoform): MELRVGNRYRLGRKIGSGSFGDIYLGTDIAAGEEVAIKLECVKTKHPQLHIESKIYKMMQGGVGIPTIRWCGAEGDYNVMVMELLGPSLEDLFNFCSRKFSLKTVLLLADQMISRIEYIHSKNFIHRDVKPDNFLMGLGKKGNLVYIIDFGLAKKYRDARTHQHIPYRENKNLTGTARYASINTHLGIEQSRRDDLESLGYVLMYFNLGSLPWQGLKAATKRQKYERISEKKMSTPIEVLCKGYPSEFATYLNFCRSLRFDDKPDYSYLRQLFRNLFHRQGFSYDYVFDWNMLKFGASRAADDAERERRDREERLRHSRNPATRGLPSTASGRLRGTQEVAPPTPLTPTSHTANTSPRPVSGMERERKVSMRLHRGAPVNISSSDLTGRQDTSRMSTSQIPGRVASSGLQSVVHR
Cyclin-dependent kinase 16 (Homo sapiens), sequence (Q00536 whole entry, canonical isoform): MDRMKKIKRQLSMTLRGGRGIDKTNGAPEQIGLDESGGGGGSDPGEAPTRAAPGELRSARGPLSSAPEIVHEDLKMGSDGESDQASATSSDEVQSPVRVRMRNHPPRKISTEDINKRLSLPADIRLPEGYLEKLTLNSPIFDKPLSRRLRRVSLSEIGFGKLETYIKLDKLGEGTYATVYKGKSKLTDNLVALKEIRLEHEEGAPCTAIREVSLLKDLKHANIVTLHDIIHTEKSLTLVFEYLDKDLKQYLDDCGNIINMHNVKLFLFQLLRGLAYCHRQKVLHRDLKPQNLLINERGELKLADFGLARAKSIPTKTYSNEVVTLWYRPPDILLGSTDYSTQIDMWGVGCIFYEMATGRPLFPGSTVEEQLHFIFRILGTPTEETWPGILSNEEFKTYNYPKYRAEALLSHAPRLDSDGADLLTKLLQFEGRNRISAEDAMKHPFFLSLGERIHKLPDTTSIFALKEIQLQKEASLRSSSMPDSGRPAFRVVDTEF
Tyrosine-protein kinase Blk (Homo sapiens), sequence (P51451 2-505 limits assumed): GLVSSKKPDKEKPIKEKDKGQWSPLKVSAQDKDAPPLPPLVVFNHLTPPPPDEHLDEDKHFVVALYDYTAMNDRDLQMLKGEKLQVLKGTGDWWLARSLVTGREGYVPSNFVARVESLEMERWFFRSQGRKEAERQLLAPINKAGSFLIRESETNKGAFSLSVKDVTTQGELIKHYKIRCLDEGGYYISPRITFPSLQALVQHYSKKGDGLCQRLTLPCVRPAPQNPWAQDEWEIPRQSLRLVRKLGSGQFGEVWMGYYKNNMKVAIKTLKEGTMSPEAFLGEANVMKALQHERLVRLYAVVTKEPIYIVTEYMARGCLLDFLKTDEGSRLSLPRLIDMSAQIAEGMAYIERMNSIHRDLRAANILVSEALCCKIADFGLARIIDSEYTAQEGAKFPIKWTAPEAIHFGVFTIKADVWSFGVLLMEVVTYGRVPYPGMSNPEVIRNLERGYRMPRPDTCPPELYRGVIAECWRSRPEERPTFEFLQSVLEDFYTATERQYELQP

In assay [1], `N#Cc1cccc(-c2c[nH]c3ncnc(N4CCOCC4)c23)c1` yielded a % of control of 62%.

`O=C(NOC[C@H](O)CO)c1ccc(F)c(F)c1Nc1ccc(I)cc1F`: the % of control in assay [2] turned out to be 100%.

`CNC(=O)Nc1ccc(-c2nc(N3CC4CCC(C3)O4)c3cnn(C4CCC5(CC4)OCCO5)c3n2)cc1`: the % of control in assay [3] was 100%.

`C=CC(=O)Nc1cc(-n2c(=O)ccc3cnc4ccc(-c5ccc(NS(C)(=O)=O)cc5)cc4c32)ccc1C`: the % of control in assay [4] (at 1 µM) came to 84%; in assay [4] (at 10 µM), 90%; in assay [5] (at 1 µM) it was 100%; in assay [5] (at 10 µM) it was 100%.

The molecule `CN(C)C/C=C/C(=O)Nc1ccc(C(=O)N2CCCC(Nc3ncc(Cl)c(-c4c[nH]c5ccccc45)n3)C2)cc1` (stereo not given) came in with a % of control in assay [6] of 100%.

As to `COc1cc(Nc2nc(C)cc(-c3cnn4nc(OC)ccc34)n2)cc(C(F)(F)F)c1`, the % of control in assay [7] turned out to be 100%.

In assay [8], `CN(C)CCOc1ccc(-c2nc(-c3ccncc3)c(-c3ccc4c(c3)CC/C4=N\O)[nH]2)cc1` came in with a % of control of 59%.

The values are drawn from ChEMBL document CHEMBL5465560, “Selectivity Literature for EUbOPEN Chemogenomic Library” (2024).
